These results are taken from patent US4602927A, “4-alkylimidazole derivatives and their use as nitrification inhibitors” (BASF Aktiengesellschaft, priority 1983, dated 1986).

For this experiment, the system named is nitrification. Put plainly: % inhibition of nitrification in soil (ammonium sulfate remaining in loamy sandy soil, Nessler reagent, 420 nm). The note with it: 1 ppm based on moist soil, 50% of maximum water capacity, 28 days at 21° C., 220 mg ammonium sulfate per 200 g soil, versus untreated soil. The procedure: 220 mg of ammonium sulfate were mixed thoroughly with 200 g of a loamy sandy soil whose moisture content had been brought to 50% of the maximum water capacity. The active ingredients, dissolved in 0.2 ml of acetone, were then added in amounts of 1 ppm, based on moist soil. After careful, thorough mixing, and evaporation of the acetone, the soil samples were incubated for 28 days at 21° C., together with the controls without added active ingredient, 1 liter glass vessels covered with aluminum foil to avoid loss of water.
2.5 g of each of the soil samples were then introduced into 100 ml conical flasks, and 22.5 ml of a 0.1N sodium sulfate solution was added. The flask was shaken for 30 minutes, after which the mixture was filtered, and 2.5 ml samples of the soil extracts were mixed with […] of distilled water. To detect the ammonium ions still present in the soil extract, 1.25 ml of Nessler reagent were then added, and the mixture was shaken thoroughly. The color changes were then measured photometrically at a wavelength of 420 nm. The amounts of ammonium sulfate still present in the soil samples were then determined with reference to standard curves obtained by a measurement of solutions containing known amounts of ammonium sulfate. The percentage inhibition of nitrification in the treated soil samples compared with the untreated soil samples (to which only ammonium sulfate had been added) was calculated using the following formula: [formula] a=nitrification rate for ammonium sulfate b=nitrification rate for ammonium sulfate+nitrification inhibitor
As to `Cc1ncn(C(=O)Nc2ccccc2)c1Cl` [Example 3, 1-N-phenylcarbamyl-4-methyl-5-chloroimidazole], the “% inhibition of nitrification 4 weeks after the addition of 1 ppm of active ingredient to the soil” value (“% inhibition of nitrification 4 weeks” for short) worked out at 85%.
For the molecule `Cc1ccn(C(=O)NOc2ccccc2)n1` [A, 1-phenoxycarbamyl-3-methylpyrazole, reference compound], the “% inhibition of nitrification 4 weeks” value turned out to be 69%.
Take `Cc1ncn(C(=O)Nc2ccc(Cl)c(Cl)c2)c1Cl` [Example 4, 1-N-(3,4-dichlorophenyl)-carbamyl-4-methyl-5-chloroimidazole]: the “% inhibition of nitrification 4 weeks” value turned out to be 71%.
As to `CNC(=O)n1cnc(C)c1Cl` [Example 1, 1-N-methylcarbamyl-4-methyl-5-chloroimidazole], the “% inhibition of nitrification 4 weeks” value was determined as 94%.
